Values of other authors as cited in patent EP1227797B1, “SOLID DISPERSION PHARMACEUTICAL FORMULATIONS” (ABBOTT LABORATORIES, priority 1999, dated 2001).

Details: PEG solid dispersion formulation

O=C1N(Cc2ccc(CO)cc2)[C@H](Cc2ccccc2)[C@H](O)[C@@H](O)[C@@H](Cc2ccccc2)N1Cc1ccc(CO)cc1 [DMP 323]
bioavailability: unable to improve the bioavailability
